Laboratory results published in patent US10874600B2, “Method for degrading bilirubin in skin” (The Procter & Gamble Company, priority 2018, dated 2020).

Assay: Bilirubin degradation assay
Type: biochemical
Conditions: for Avg. IB at pH 3.8 / Avg. IB at pH 7.4: 25 μg/mL IB, 24-hr incubation at room temperature, average of triplicate; for Δ IB (actual): pH 3.8 vs reference value (pH 7.4, 0% niacinamide leg); for Δ IB (predicted): predicted additive effect of niacinamide at pH 7.4 plus observed pH effect 2.323
Description: The bilirubin degradation assay provides an in vitro method of determining how a material or composition affects bilirubin degradation. Three replicates of each test sample are prepared in a 96-well plate (e.g., a FALCON brand 96-well tissue culture plate or equivalent) at a total volume of 250 μl/well. A stock of 250 ug/ml indirect bilirubin (i.e., the unconjugated form of bilirubin most commonly found in blood serum) is made by dissolving bilirubin powder (Cayman Chemicals Company, Catalog #17161) in DMSO (Sigma, Catalog # D8414-100 ml) to yield a stock solution at 10× working concentration. Working concentration of bilirubin is set at 25 ug/ml for every well except negative/vehicle control wells. […] The positive control wells may be prepared by mixing 25 ul of 250 ug/ml bilirubin stock solution and 225 ul PBS (AccuGENE, Catalog #51225). For negative/vehicle control wells, 25 ul DMSO is used in place of bilirubin. Test sample wells contain 25 ul of 250 ug/ml bilirubin stock solution, 200 ul PBS and 25 ul of each treatment solution made as 10× concentrate stock, e.g., for 0.1% Niacinamide treatment, a 10× concentrate stock is made at 1%.
The pH of each sample is adjusted using 1M HCl pH titration is performed separately before the experiment set up to determine how much 1M HCl is needed for each leg to achieve targeting pH level. 1500 ul of a master working solution of each testing leg was made without bilirubin to accommodate threshold volume need for pH adjustment. The master solution for the vehicle control wells contain 150 ul DMSO and 1350 ul of a mixture of 1M HCl and PBS. […] Bilirubin is unstable when exposed to ambient light. Thus, for bilirubin positive control well pre-titration, DMSO was used as surrogate for bilirubin. […] For pre-titration test sample wells, 1500 ul of master solution is made by mixing 150 ul DMSO (surrogate for bilirubin stock), 150 ul 10× treatment stock, and a 1200 ul mixture of 1M HCl and PBS. For actual experimental set up, make: 1350 ul pre-mix in triplicate for each leg, less either DMSO (for vehicle control leg) or bilirubin (for positive control and treatment legs) but with matching volume of all other ingredients as determined by pre-titration. Then for vehicle control leg, add 25 ul DMSO per well followed by adding in 225 ul of the pre-mix. For all other legs, add 25 ul of 250 ug/ml bilirubin stock made in DMSO per well followed by adding in 225 ul of corresponding pre-mix. […] The plate(s) containing the test samples are covered with aluminum foil and placed on top of a microplate shaker (VWR, Catalog #12620-938). Incubation was carried out at room temperature for 24-hr with constant shaking at 150 rpm. […] Commercially available bilirubin quantification kit (Cell Biolab, Catalog # MET-5010) was used for bilirubin quantification. The assay is based on the Jendrassik-Grof method in which diazotized sulfanilic acid reacts with bilirubin to form azobilirubin, the latter of which can be detected at an OD of 540 nm. A standard bilirubin curve is generated using the same bilirubin used for treatment and quantified.
Bilirubin concentrations of all testing legs are calculated using linear regression against the standard bilirubin curve. Resulting bilirubin concentrations are compared to neutral pH bilirubin reference leg. The difference in bilirubin quantification (A bilirubin) between the neutral-pH bilirubin reference leg and the low-pH niacinamide treated legs can be analyzed for predicted effect and actual effect.
The effect of niacinamide level on bilirubin degradation was tested at 0.1%, 0.5%, and 3%, by weight, based on the volume of the composition (w/v). A vehicle control is used in this Example as the negative control.

Structure (SMILES): NC(=O)c1cccnc1 [niacinamide]
- Avg. IB at pH 3.8 (0.1% (w/v) niacinamide): 17.713 μg/mL
- Avg. IB at pH 7.4 (0.1% (w/v) niacinamide): 20.851 μg/mL
- Δ IB (actual) (0.1% (w/v) niacinamide): 3.405
- Δ IB (predicted) (0.1% (w/v) niacinamide): 2.590
- Avg. IB at pH 3.8 (0.5% (w/v) niacinamide): 14.231 μg/mL
- Avg. IB at pH 7.4 (0.5% (w/v) niacinamide): 20.185 μg/mL
- Δ IB (actual) (0.5% (w/v) niacinamide): 6.887
- Δ IB (predicted) (0.5% (w/v) niacinamide): 3.256
- Avg. IB at pH 3.8 (3% (w/v) niacinamide): 9.585 μg/mL
- Avg. IB at pH 7.4 (3% (w/v) niacinamide): 17.087 μg/mL
- Δ IB (actual) (3% (w/v) niacinamide): 11.533
- Δ IB (predicted) (3% (w/v) niacinamide): 6.354
- reduction in bilirubin in the low-pH composition compared with predicted (niacinamide in low-pH composition vs observed individual effects of pH and niacinamide level): much higher level than predicted
